Patent US20140005070A1, “MARKERS ASSOCIATED WITH CYCLIN-DEPENDENT KINASE INHIBITORS” (Novartis AG, priority 2011, published 2014)

Legend:
[1] = tested on: PD markers MEPCE, MCL, MYC, HEXIM, LARP7 and WHSC2; assay: Affymetrix U133-Plus-2 microarray gene expression profiling of CDKI treated cell lines; format: cell-based; details: A375 cells, FIG. 2
Method: Five cell lines were analyzed: NCI-H929, a multiple myeloma cell line (ATCC Cat. # CRL-9068); NCI-H441, a lung papillary adenocarcinoma cell line (ATCC Cat. # HTB-174); A375, a melanoma cell line (ATCC Cat. # CRL-1619); A2058, a melanoma cell line (ATCC Cat. #CRL-1147) and U-87-MG, a glioblastoma cell line (ATCC Cat. #HTB-14). Cell lines were grown in the medium recommended by ATCC and treated as follows:
NCI-H441 and A375: 0 timepoint: Untreated, harvested when compound is added to the other plates.
2 hours: DMSO, 200 nM CKDI(8) or 500 nM CKDI(8) or 500 nM CKDI(7) (3 plates each, total 12 plates).
8 hours: DMSO, 200 nM CKDI(8) or 500 nM CKDI (8) or 500 nM CKDI(7) (3 plates each, total 12 plates).
16 hours: DMSO, 200 nM CKDI(8) or 500 nM CKDI(8) or 500 nM CKDI(7) (3 plates each, total 12 plates). […]
An average expression level was determined for each probeset at each time-point and treatment condition by computing the geomean expression level across replicate tumors. […] The p-value was determined by a two-tailed t-test assuming unequal variances (Satterwaithe's approximation). […]
This is shown in FIG. 2, where A375 cells that are sensitive to CDKI were treated with CDKI(7) and the reduction of gene expression was determined at 2, 8 and 16 hours of treatment.

MYC = assay: Dog toxicology study, TaqMan mRNA in white blood cells after CDKI(7): MYC; format: in vivo
Method: As part of a dog toxicology study, CDKI(7) was administered to dogs. White blood cells were harvested and MEPCE, MYC and MCL1 gene expression was assessed as PD markers. mRNA levels of each of these PD markers were measured by TaqMan® at various time points after CDKI(7) treatment.
The study had three groups of three dogs each. Dogs in Group 1 (#101, #102, and #103) were treated with CDKI(7) at 0.5 mg/kg, dogs in Group 2 (#104, #105, and #106) were treated at 1 mg/kg CDKI(7) and dogs in Group 3 (#107, #108, and #109) were treated at 2 mg/kg CDKI(7). Samples were collected before treatment (0 hour), 3 hours, 7 hours and 24 hours after treatment for a total of 12 samples per group. Blood samples were received frozen in QIAGEN RNA protect® Animal Blood tubes (Cat. # 76554 QIAGEN-Valencia, Calif., USA). RNA samples were extracted using the QIAGEN RNeasy® Protect Animal Blood kit (Cat. # 73224). RNA samples were quantified using the RNA Quant-iT RNA® assay from Invitrogen (Cat. # Q32852 Invitrogen—Grand Island, N.Y., USA) and read on an Invitrogen Qubit fluorometer® (Cat. # Q32857). First strand cDNA synthesis was performed on 500 ng of RNA in a reaction volume of 20 μl using a High Capacity cDNA Reverse Transcription Kit® from Applied Biosystems (Cat. # 4368814 Applied Biosystems, Carlsbad, Calif., USA). The cDNA samples were then diluted to obtain a 10 ng cDNA input for the TaqMan® reaction. TaqMan® reactions were run in triplicates using a TaqMan® Gene Expression Master Mix from Applied Biosystems (Cat. # 4369016) on an ABI 7500® machine. The 18S rRNA level was used as an endogenous control for variations in cDNA input. The relative quantification method was used to analyze the data; this method uses one sample as a calibrator sample and express mRNA levels relative to that sample. The results were expressed as RQ values (Relative Quantification) with RQ Min and RQ Max values determining a 95% confidence interval for the real RQ value. The samples were grouped according to the dose and each group was treated as a separate experiment with one of the pre-dose samples used as a calibrator sample. The logarithm of the RQ values are plotted so that increases or decreases from the initial value can be more easily represented; on a logarithmic scale: a 10-fold increase or 10-fold decrease in RQ value are represented as +1 and −1 respectively.
The MYC transcription factor is a known oncogene and previous Examples have shown that its mRNA is short-lived and sensitive to CDK9 inhibition (see FIG. 2). The MYC mRNA levels were determined by TaqMan® using the relative quantification method. The calibrator samples are dog #101 at 0 hour timepoint for the 0.5 mg/kg dose of CDKI(7), dog #104 at 0 hour timepoint for the 1 mg/kg CDKI(7) dose and dog #107 at 0 hour timepoint for the 2 mg/kg CDKI(7) dose. The logarithm (base 10) of the RQ values is plotted with the error bars representing the 95% confidence interval.

O=C(Nc1cc(-c2cccc(NCC3CCOCC3)n2)c(Cl)cn1)[C@@H]1CCCNC1 [CDKI(7)]
expression of the PD markers MEPCE, MCL, MYC, HEXIM, LARP7 and WHSC2 ([1]; microarray, 2, 8 and 16 hours of treatment): reduced | time point of greatest amount of reduction of MEPCE expression ([1]; microarray): 8 h | MYC mRNA regulation (MYC; 0.5 mg/kg): no significant down regulation | increase of MYC mRNA (MYC; 1 mg/kg, 3 or 7 hour time points): 2 fold | MYC mRNA regulation (MYC; 2 mg/kg, FIG. 7): consistent down regulation | maximum down regulation of MYC mRNA (MYC; 2 mg/kg, at 3 hours, all three dogs): 3.8 fold | dogs showing MYC down regulation (MYC; 2 mg/kg, at 7 hours): 2 out of three | MYC mRNA levels by 24 hours (MYC; all doses, 24 hours): trended back to pre-treatment levels
